Measured values from patent US12318357B2, “Small molecule drugs and related methods for treatment of diseases related to TDP-43, alpha-synuclein, huntingtin's protein and tau protein oligomer formation” (ACELOT, INC., priority 2019, dated 2025).
“Also recorded” adds a separate entry of the source. Where two headings read alike, the source gives them in different places.

Legend:
[1] = test system: TDP43 granules in U2OS cells stably expressing tGFP tagged human TDP-43; assay: TDP43 granule formation inhibition in TDP43-tGFP-U2OS cells after sodium arsenite treatment; assay type: cell-based; details: for TDP43 granule formation inhibition in cells after arsenite treatment (overall result): 24 h pre-incubation, 1-10 μM, 250 μM sodium arsenite 120 min
From the text: Amyotrophic lateral sclerosis (ALS) is one of the most common degenerative diseases of the motor neuron system. TDP-43 related pathologies seem to be a dominant type of pathologies across sporadic ALS types. A novel fluorescence cell-based assay for High Content Screening that allows the quantification of pathological TDP43 granules has been developed. In this work we have used this model to screen the effects of three compounds, using Riluzole as a positive control. The TDP-43 U2OS cell line contains U2OS cells stably expressing the tGFP tagged human TDP-43. This cell line has been designed to test compounds and to analyse their capability to modulate TDP43 granule formation after cytotoxic stress induction. The cell line was generated in Innoprot. It is a stable cell line that express the LacRI repressor protein and the TDP43-turboGFP protein. The cell line was generated using the pCMVLacRI-Hygro plasmid (Hygromycin resistance) and the pPuro-TDP43tGFP plasmid (that confers the puromycin resistance). The cell line was generated transfecting these plasmids with Lipofectamine LTX reagent, and the transfected cells were diluted until critical dilution. The negative control show a diffuse nuclear distribution of the fluorescence, but after sodium arsenite treatment the phenotype turns into a cytosolic vesicular pattern corresponding to stress granules and into an intensive nuclear granules pattern. The aim of this work was to assess different doses of 11 compounds.
The objective of these experiments was to screen the protective effect of 11 compounds and reference compound (arimoclomol) against cellular oxidative stress induced by sodium arsenite (i.e., arsenite). The compounds have been tested at 10 μM, […], 2 μM and 1 μM each, and appropriate controls (vehicle, arsenite and controls) have been included as well. The compound tested were the following: 101, 102, 103, 104, 105, 106, 107, 201, 202, 203 and 204.
Each compound was prepared in Optimem. In the final dilution, DMSO was added in order to obtain a final DMSO concentration of 0.1$, the same that the reference compound (arimoclomol). All compounds were tested at 0.1% DMSO (vehicle) final concentration.
Day 1 (Thursday). Recombinant TDP43-tGFP-U2OS cell line was thawed (2×10^6 cells per T75). Day 2 (Friday). After 24 hours, Cells were maintained in DMEM-F12 supplemented with 10% FBS at 37° C. in a humidified 5% CO2 atmosphere. Day 5 (Monday). Cells were plated in coated 96-well plates with a number of 10.000 cells (+/−2000 cells) per well. Cells were maintained in DMEM-F12 medium supplemented with 10% FBS for 24 h at 37° C. in a humidified 5% CO2 atmosphere. Day 6 (Tuesday). Cells were incubated with test compounds and IPTG 1 mM in triplicate assays during 24 hours. Day 7 (Wednesday). Culture medium was replaced, and cells were treated with 250 μM of sodium arsenite during 120 min and TDP-43 globs formation was quantified in both cell cytoplasm and cell nucleus. The TDP43 granules formation was quantified after the formaldehyde fixation (3.7 wt. %, 20 minutes) of the cells. The nuclei were stained using DAPI (2 μg/ml) and the fluorescence was measured using a Cell Insight High-Content Bioimager from Thermofisher. To detect the DAPI, the filters used were 380/10 and 460/10 nm for excitation and emission, respectively and to detect the TDP43 granules, the filters were 488/20 and 520/20 nm, respectively. The images were obtained with an objective of 20×, taking 9 pictures of each well. Cell quantification was performed delimitating the region of interest of the nuclei (stained with DAPI) and after quantification, the average of each triplicate was performed. Granule quantification was also performed using the Thermofisher Cellomics Scan Viewer 6.1.1. Spot detector application from Cell Software delimitated 2 regions of interest, the nuclei and cytosol. This software application quantified the number of granules per nuclei and the average granule number per cytosol of each well was calculated. […]

TDP-43307-319 WT peptide [2] = target: T1, TDP-43307-319 WT peptide (Homo sapiens, UniProt Q13148); assay: IM-MS monitoring of oligomerization of TDP-43307-319 (recovery study on aggregated peptide); assay type: biochemical; details: for oligomer distribution initially after addition of inhibitor to aggregated WT peptide: initial time point; for remodeling of developed higher-order oligomers and prevention of re-formation (overall): recovery study on aggregated peptide; for rate of redistribution relative to the other inhibitors: recovery study, comparison among molecules; for oligomer distribution a week after single treatment: one week
T1 construct: TDP-43307-319 WT peptide 307 [MGGGMNF GAFSIN]319; made in house; host or cells: chemical synthesis (Fmoc solid phase peptide synthesis), not recombinant
Method: Peptide Synthesis and Purification. TDP-43307-319 WT peptide 307 [MGGGMNF GAFSIN]319 was synthesized using standard 9-fluorenylmethoxycarbonyl (Fmoc) chemistry using 2-(1H-benzotriazol-1-yl)-1,1,3,3-tetramethyluronium hexafluorophosphate/hydroxy-benzotriazole (HBTU/HOBT) manual solid phase peptide synthesis. The peptide was amidated with an Fmoc-Rink Amide resin (Anaspec). The peptide was cleaved from the resin using 94% TFA, 5% triisopropylsilane, and 1% phenol for 2 h at 295 K. The crude peptide was purified by reverse phase high performance liquid chromatography (RP-HPLC) on a semipreparative C18 column (Phenomenex) using gradients of water [0.1% (v/v) TFA] and acetonitrile [0.1% (v/v) TFA]. The peptide was dissolved in 6 M guanidine hydrochloride (GdnHCl) prior to injection due to its insolubility in water and acetonitrile. The peptide purity was >93% as determined by analytical RP-HPLC. The molecular mass of the peptide was verified by ESI mass spectrometry.
IM-MS was utilized to monitor the oligomerization of TDP-43307-319 in the presence of molecules AC0107, AC0105, AC0102 and AC0201. The ability of IMMS to separate species of a specific [m]z+ (m=mass, z=charge) that contains different [n]z+ (n=oligomer number) by measuring the arrival time distributions (ATDs) yields oligomeric distributions. Samples were prepared as mentioned previously and incubated at room temperature under quiescent conditions.
The TDP-43307-319 WT peptide was dissolved in 10 mM ammonium acetate (pH 7.4) with 2% HFIP to a final peptide concentration of 100 μM. The sample was incubated at room temperature under quiescent conditions for 4 h to develop higher-order oligomers. Two dominant mass/charge (m/z) peaks were always present in the mass spectra corresponding to [n]Z+=[1]1+ and [1]2+. […] After incubation at room temperature for 4 h, the distribution shifted toward the higher-order oligomers. […] Once the presence of higher-order oligomers was confirmed, an inhibitor (either [AC0107], [AC0105], [AC0102], [AC0201] or [AC0202]) was added in a 1:1 peptide (100 μM): inhibitor (100 μM) molar ratio. Subsequent time points were taken to monitor the remodeling properties of the inhibitors.

TDP-43307-319 WT peptide [3] = target: T1, TDP-43307-319 WT peptide; assay: as above; assay type: biochemical; details: 100 μM peptide
[4] = Homo sapiens, U2OS, normalized to sodium arsenite and vehicle, read-out: maximum stress granule inhibition in cytosol
[5] = 1:1 peptide (100 μM): inhibitor (100 μM), added after 4 h aggregation

Structure (SMILES)	TDP43 granule formation inhibition in cells after arsenite treatment (overall result) [1]	inhibition at 10 µM [1, 4]	oligomer distribution initially after addition of inhibitor to aggregated WT peptide (TDP-43307-319 WT peptide [2]; 1:1, 100 μM each)	remodeling of developed higher-order oligomers and prevention of re-formation (overall) (TDP-43307-319 WT peptide [2])	other results
CC(=O)Nc1ccc(CNCCc2cccc(Cl)c2)cc1 [AC0101, N-[4-({[2-(3-chlorophenyl)ethyl]amino}methyl)phenyl]acetamide]	positive	44%	–	–	inhibition at 5 µM ([1]; Homo sapiens, U2OS, at 5 μM, normalized to sodium arsenite and vehicle, read-out: maximum stress granule inhibition in nucleus): 62.5%
CN(C)Cc1ccc(CNCc2ccc3c(c2)OCCO3)cc1 [AC0102, (2,3-dihydro-1,4-benzodioxin-6-ylmethyl)({4 [(dimethylamino)-methyl]phenyl}methyl)amine]	positive	36.9%	shift toward higher-order oligomers	able to remodel the developed higher-order oligomers and prevent the re-formation of these toxically related species	inhibition at 10 µM ([1]; Homo sapiens, U2OS, normalized to sodium arsenite and vehicle, read-out: maximum stress granule inhibition in nucleus): 27.7%; oligomer distribution after 1 h (TDP-43307-319 WT peptide [2]; 1:1, 100 μM each, 1 h after addition): remnants of higher-order oligomers are present; oligomer distribution at later time points (TDP-43307-319 WT peptide [2]; 1:1, 100 μM each, later time points): composed primarily of monomer and dimer; rate of redistribution relative to the other inhibitors (TDP-43307-319 WT peptide [2]): slower rate
CN(C)C(=O)C(c1ccccc1)N1CCN(c2ccc(O)cc2)CC1 (stereo not shown) [AC0103, 2-[4-(4-hydroxyphenyl)piperazin-1-yl]-N,N-dimethyl-2 phenylacetamide]	positive	47.2%	–	–	–
N#Cc1cccc(CNCc2ccc(CN3CCOCC3)cc2)c1 [AC0104, 3-[({[4-(morpholin-4 ylmethyl)phenyl]methyl}amino)methyl]benzonitrile]	mildly active	–	–	–	–
N#Cc1ccc(CNCc2ccc(CN3CCCC3)cc2)cc1 [AC0105, 4-[({[4-(pyrrolidin-1 ylmethyl)phenyl]methyl}amino)methyl]benzonitrile]	mildly active	–	immediate dissociation of higher-order oligomers into monomer and dimer	able to remodel the developed higher-order oligomers and prevent the re-formation of these toxically related species	oligomer distribution a week after single treatment (TDP-43307-319 WT peptide [2]; 1:1, 100 μM each): maintained for a week
N#Cc1ccc(CNCc2cccc(CN3CCCC3)c2)cc1 [AC0107, 4-[({[3-(pyrrolidin-1-ylmethyl)phenyl]methyl}amino)methyl]benzonitrile]	–	–	initial increase in the number of higher-order oligomers	able to remodel the developed higher-order oligomers and prevent the re-formation of these toxically related species	time by which redistribution to mostly monomer and dimer is seen (TDP-43307-319 WT peptide [2]; 1:1, 100 μM each): ≥ 3 h; complexation between WT peptide and molecule in mass spectra (TDP-43307-319 WT peptide [2]; [5]): no complexation; level of aggregation (signal-to-noise ratio, baseline, [1]1+ peak) after addition of inhibitor (TDP-43307-319 WT peptide [2]; [5]): level of aggregation was reduced
CC(C)C(NCc1ccccc1)c1cccc(C=O)c1 (stereo not shown) [AC0201, 3-[1-(benzylamino)-2-methylpropyl]benzaldehyde]	–	–	immediately pushed the bulk of the distribution back to monomer, dimer, and trimer	successfully redistributed the oligomers to monomer and was able to prevent the re-formation of higher-order oligomers	oligomer distribution at 3-24 h (TDP-43307-319 WT peptide [2]; 1:1, 100 μM each, 3-24 h after addition): dominated by monomer and dimer; oligomer distribution a week after single treatment (TDP-43307-319 WT peptide [2]; 1:1, 100 μM each): dominate monomer peak was observed; rate of redistribution relative to the other inhibitors (TDP-43307-319 WT peptide [2]): fastest and most efficient redistribution; redistribution of oligomers at 10:1 peptide:inhibitor molar ratio (TDP-43307-319 WT peptide [3]; 10 μM inhibitor): takes a longer time to dissociate oligomers to mostly monomer; also recorded: very effective inhibitor; also recorded: effective; redistribution of oligomers at 4:1 peptide:inhibitor molar ratio (TDP-43307-319 WT peptide [3]; 25 μM inhibitor): effective at redistributing and maintaining the population of lower-order oligomers; redistribution of oligomers at 2:1 peptide:inhibitor molar ratio (TDP-43307-319 WT peptide [3]; 50 μM inhibitor): effective at redistributing and maintaining the population of lower-order oligomers
